Tests used:
[1] = test system: Zea mays; assay: Phytotoxicity against Zea mays (maize) crop assessed as crop injury at 35 g a.i./ha measured after 7 days in presence of 28% UAN relative to control; type: organism-based; details: in vivo, 168 h
[2] = test system: Muhlenbergia; assay: Post-emergence herbicidal activity against Muhlenbergia frondosa at 35 g a.i./ha measured after 28 days in presence of 28% UAN relative to untreated-control; type: functional
[3] = test system: Muhlenbergia; assay: Post-emergence herbicidal activity against Muhlenbergia frondosa assessed as reduction in dry weight at 35 g a.i./ha measured after 56 days in presence of 28% UAN relative to untreated-control; type: functional; set-up: scale not given: the % may be the effect or the level left
[4] = test system: Muhlenbergia; assay: Post-emergence herbicidal activity against Muhlenbergia frondosa assessed as increase in maize yield at 35 g a.i./ha in presence of 28% UAN relative to untreated-control; type: functional
[5] = test system: Muhlenbergia; assay: Post-emergence herbicidal activity against Muhlenbergia frondosa at 35 g a.i./ha measured after 56 days in presence of 28% UAN relative to untreated-control; type: functional
[6] = test system: Muhlenbergia; assay: Post-emergence herbicidal activity against Muhlenbergia frondosa assessed as reduction in density at 35 g a.i./ha measured after 56 days in presence of 28% UAN relative to untreated-control; type: functional; set-up: scale not given: the % may be the effect or the level left
[7] = test system: Elymus repens; assay: Post-emergence herbicidal activity against Elymus repens (couch grass) relative to control; type: functional
[8] = test system: Muhlenbergia; assay: Post-emergence herbicidal activity against Muhlenbergia frondosa assessed as reduction in density at 25 g a.i./ha measured after 56 days in presence of Agral 90 relative to untreated-control; type: functional; set-up: scale not given: the % may be the effect or the level left
[9] = test system: Muhlenbergia; assay: Post-emergence herbicidal activity against Muhlenbergia frondosa assessed as increase in maize yield at 25 g a.i./ha in presence of Agral 90 relative to untreated-control; type: functional
[10] = test system: Zea mays; assay: Phytotoxicity against Zea mays (maize) crop assessed as crop injury at 25 g a.i./ha measured after 7 days in presence of Agral 90 relative to control; type: organism-based; details: in vivo, 168 h
[11] = test system: Muhlenbergia; assay: Post-emergence herbicidal activity against Muhlenbergia frondosa at 25 g a.i./ha measured after 56 days in presence of Agral 90 relative to untreated-control; type: functional
[12] = test system: Muhlenbergia; assay: Post-emergence herbicidal activity against Muhlenbergia frondosa assessed as reduction in dry weight at 25 g a.i./ha measured after 56 days in presence of Agral 90 relative to untreated-control; type: functional; set-up: scale not given: the % may be the effect or the level left
[13] = test system: Muhlenbergia; assay: Post-emergence herbicidal activity against Muhlenbergia frondosa at 25 g a.i./ha measured after 28 days in presence of Agral 90 relative to untreated-control; type: functional
[14] = test system: Elymus repens; assay: Post-emergence herbicidal activity against Elymus repens (couch grass) at 35 g/ha relative to control; type: functional
[15] = test system: Muhlenbergia; assay: Post-emergence herbicidal activity against Muhlenbergia frondosa assessed as number of plants at 25 g a.i./ha measured after 56 days in presence of Agral 90 (reference value: 41 /m2); type: functional
[16] = test system: Muhlenbergia; assay: Post-emergence herbicidal activity against Muhlenbergia frondosa assessed as dry weight at 25 g a.i./ha measured after 56 days in presence of Agral 90 (reference value: 102 g); type: functional
[17] = test system: Muhlenbergia; assay: Post-emergence herbicidal activity against Muhlenbergia frondosa assessed as maize yield at 25 g a.i./ha in presence of Agral 90 (reference value: 9.64 tons/ha); type: functional
[18] = test system: Elymus repens; assay: Post-emergence herbicidal activity against Elymus repens (couch grass) at 42 g/ha relative to control; type: functional
[19] = test system: Muhlenbergia; assay: Post-emergence herbicidal activity against Muhlenbergia frondosa assessed as increase in maize yield at 15 g a.i./ha in presence of Agral 90 relative to untreated-control; type: functional
[20] = test system: Muhlenbergia; assay: Post-emergence herbicidal activity against Muhlenbergia frondosa at 15 g a.i./ha measured after 28 days in presence of Agral 90 relative to untreated-control; type: functional
[21] = test system: Muhlenbergia; assay: Post-emergence herbicidal activity against Muhlenbergia frondosa at 15 g a.i./ha measured after 56 days in presence of Agral 90 relative to untreated-control; type: functional
[22] = test system: Muhlenbergia; assay: Post-emergence herbicidal activity against Muhlenbergia frondosa assessed as dry weight at 15 g a.i./ha measured after 56 days in presence of Agral 90 (reference value: 102 g); type: functional
[23] = test system: Muhlenbergia; assay: Post-emergence herbicidal activity against Muhlenbergia frondosa assessed as number of plants at 15 g a.i./ha measured after 56 days in presence of Agral 90 (reference value: 41 /m2); type: functional
[24] = test system: Zea mays; assay: Phytotoxicity against Zea mays (maize) crop assessed as crop injury at 15 g a.i./ha measured after 7 days in presence of Agral 90 relative to control; type: organism-based; details: in vivo, 168 h

COc1cc(OC)nc(NC(=O)NS(=O)(=O)c2cc(NC=O)ccc2C(=O)N(C)C)n1 [FORAMSULFURON]
Activity [1]: 1.1%
Activity [2]: 80%
Activity [3]: 94%
Activity [4]: 17%
Activity [5]: 89%
Activity [6]: 76%

COc1cc(OC)nc(NC(=O)NS(=O)(=O)c2ncccc2C(=O)N(C)C)n1 [NICOSULFURON]
Activity [7]: 89%
Activity [8]: 44%
Activity [9]: 22%
Activity [10]: 1.1%
Activity [11]: 32%
Activity [12]: 70%
Activity [13]: 49%
Activity [14]: 97%

O=C(Nc1nc(OC(F)F)cc(OC(F)F)n1)NS(=O)(=O)c1ccccc1C(=O)O [PRIMISULFURON]
Activity [15]: 39 /m2
Activity [7]: 80%
Activity [16]: 78 g
Activity [10]: 1.2%
Activity [11]: 12%
Crop_yield [17]: 10.1 tons/ha
Activity [18]: 94%
Activity [13]: 32%

CCS(=O)(=O)c1cccnc1S(=O)(=O)NC(=O)Nc1nc(OC)cc(OC)n1 [RIMSULFURON]
Activity [7]: 63%
Activity [19]: 11%
Activity [20]: 32%
Activity [21]: 14%
Activity [22]: 72 g
Activity [23]: 44 /m2
Activity [24]: 1.2%

— ChEMBL document CHEMBL3046704, “Control of Muhlenbergia frondosa (wirestem muhly) with post-emergence sulfonylurea herbicides in maize (Zea mays)” (Crop Prot, 2007)
